Experiments:
[1] = Lipid probe incorporation and diffusivity by laser-photobleaching; type: physicochemical
From the text: In the same way, mixtures can be made of the copolymer amphiphiles with other synthetic or non-synthetic amphiphiles, such as, lipids or proteins. […] FIGS. 6A and 6B show the uniformity of fluorescence around an aspirated contour of membrane with 3 mol % mixed in with polymer before vesicle formation.

[2] = Micropipette aspiration of vesicle membranes (bending and area expansion moduli, rupture); type: physicochemical; details: vesicles formed by electroformation
Procedure: The tool that has been used to measure many of the material properties of bilayer vesicles is “micropipette aspiration” as applied in FIG. 2. In micropipette aspiration, the rheology and material properties of micron-sized objects are measured using glass pipettes. Small, micron diameter pipettes are used to pick up, deform and manipulate micron-sized objects, such as giant lipid vesicles. The aspiration pressure is controlled by manometers, in which the hydrostatic pressure in a reservoir connected to the micropipette is varied in relation to a fixed reference. Pressure may be varied with a resolution of microns of H2O (or 10^−6 atm).
A deformable object is aspirated using a pressure driving force (or suction pressure), ΔP, and the object is drawn within the pipette to a projection length LP. […] The bending modulus is measured by exerting small tensions on the membrane, to smooth out thermally-driven surface undulations. […]
Analogous to a lipid bilayer, at low but increasing aspiration pressures, the thermally undulating polymersome membrane was progressively smoothed, increasing the projected area logarithmically with tension, τ, (FIG. 3A). From the slope of this increase (in tension units of mN/m) versus the fractional change, α, in vesicle area the bending modulus, Kb, was calculated (see, e.g., Evans et al., Phys. Rev. Lett. 64:2094 (1990); Helfrich et al., Nuovo Cimento D3:137 (1984)). […]

lipid probe diffusivity [1]: approximately 3×10^−8 cm^2/s
Ka, elastic modulus for area expansion [2]: ~180 mN/m
Structure (SMILES): CCCCCCCC/C=C\CCCCCCCC(=O)O[C@H](COC(=O)CCCCCCCCCCCCCCCCC)COP(=O)([O-])OCC[N+](C)(C)C [SOPC, 1-stearoyl-2-oleoyl phosphatidylcholine]

Reference: patent US7867512B2, “Cross-linked polymersomes and related encapsulating membranes” (The Trustees of the University of Pennsylvania, priority 1999, dated 2011)
